This passage reports TGI and GI50 results from PubChem BioAssay (NCI).

Holding throughout (test): NCI tumour cell line growth inhibition, 48 h
Experiment [1] relates to HL-60(TB) leukemia.
The subject of experiment [2] is SK-MEL-2 melanoma.
In experiment [3] the test system is K-562 leukemia.
Experiment [4] concerns HOP-92 NSCLC.
Experiment [5] has as its system RPMI-8226 leukemia.
For experiment [6], the system named is M14 melanoma.
Experiment [7] has as its system MDA-MB-435.
Experiment [8] has as its system HCT-116 colon.
In experiment [9] the test system is SNB-75 CNS.
Experiment [10] relates to SK-MEL-5 melanoma.

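Method: 48-hour compound exposure of cells in 96-well plates, five concentrations, linear interpolation of endpoints. At the GI50, growth is halved. TGI is the concentration that stops growth completely.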 Where only a bound is given, the exact number is not on record here.

As to `CCCCCCCCCCCCCCCCNc1ccn(C2CC(OP(=O)(O)OCC3OC(n4cc(CC)c(=O)[nH]c4=O)CC3O)C(CO)O2)c(=O)n1` (stereo unspecified), the TGI in [1] was 20.2 µM; in experiment [2], 39.1 µM; in experiment [3] it was 44.9 µM; in experiment [4], more than 100 µM; in [5], 38.8 µM; in experiment [6] it was 33.2 µM. The TGI is more than 100 µM in experiment [7], more than 100 µM in [8] and 81.1 µM in [9].

Consider `CC(C)CC(NC(=O)C(COc1ccc([N+](=O)[O-])cc1)Cc1ccccc1)C(=O)Nc1ccccc1` (stereo unspecified), for which the TGI in experiment [1] was more than 100 µM; in experiment [2], 74.1 µM; in experiment [3], more than 100 µM; in [4], 34.2 µM; in experiment [5], more than 100 µM; in experiment [6] it was 60.8 µM. Further, the TGI in experiment [7] is more than 100 µM; in experiment [8] it was more than 100 µM; in experiment [9], 7.84 µM; in experiment [10], more than 100 µM.

As to `COc1ccc(C(C)NNC(=O)c2ccncc2)cc1F` (stereo unspecified), the TGI in experiment [1], in experiment [2], in [3], in experiment [4], in experiment [5] and in [6] was more than 100 µM each time. Further, the TGI in [7], in experiment [8], in experiment [9] and in [10] was more than 100 µM each time.

As for `Cc1nn(-c2ccccn2)c2c1C(SC#N)=C(C=O)CC2`, the TGI was found to be 16 µM in experiment [1]; 30.5 µM in experiment [2]; 39 µM in [3]; 34.5 µM in experiment [4]; 63 µM in experiment [5]; 31.7 µM in experiment [6]. For the same compound, the TGI was determined as 37.7 µM in experiment [7], 37.1 µM in [8], 30.1 µM in experiment [9] and 28.2 µM in [10].

As for `c1ccc(CNc2ncnc3n[nH]nc23)cc1`, the TGI in experiment [1], in experiment [2], in [3], in [4], in experiment [6] and in [7] was more than 100 µM each time. Besides, the TGI in experiment [8], in experiment [9] and in experiment [10] was more than 100 µM each time.

`N#Cc1c(C#N)c(-c2ccccc2)n(/N=C\c2ccccc2)c1N`: the TGI is more than 100 µM in experiment [1]; 87.3 µM in experiment [2]; more than 100 µM in experiment [3]; 68.4 µM in [4]; 40.1 µM in experiment [5]; more than 100 µM in experiment [6]. For the same compound, the TGI in [7] was more than 100 µM; in [8], more than 100 µM; in [9], 74.2 µM; in experiment [10] it was 32.8 µM.

As for `COC(=O)C1[C@H](C(=O)OC)C1(Br)CBr` (stereo partly specified), the TGI in experiment [1], in [2], in [3], in [4], in [5] and in experiment [6] was more than 100 µM in each case. Also, the TGI in [7], in experiment [8], in experiment [9] and in [10] was more than 100 µM in each case.

For `C=C1C(=O)O[C@H]2[C@H]([C@H](C)CCCC(C)=O)O[C@H]([C@@]3(C)CCC(=O)O3)C[C@@H]12`, the TGI in [1], in [2], in experiment [3], in experiment [4], in experiment [5] and in experiment [6] was more than 100 µM in each case. Also, the TGI in experiment [7] was more than 100 µM; in experiment [8], 85.5 µM; in experiment [9], more than 100 µM; in experiment [10], more than 100 µM.

As to `COc1ccc(NC(=S)NNC(=O)c2cc(-c3ccccc3)nc3ccccc23)cc1`, the TGI in experiment [2] is 38.9 µM; in experiment [3], 46.5 µM; in experiment [4], 31.9 µM; in experiment [5], 43.2 µM; in experiment [6], 31.9 µM; in [7], 13.4 µM. The TGI in [8] amounted to 27 µM; in experiment [9] it was 70.3 µM; in experiment [10] it was 25.6 µM.

Take `COc1cccc(C2CC(=O)c3cccn32)c1` (stereo unspecified): the TGI was 96 µM in [1]; more than 100 µM in [2]; more than 100 µM in experiment [3]; more than 100 µM in [4]; more than 100 µM in experiment [5]; more than 100 µM in experiment [6]. The TGI in experiment [7], in [8] and in experiment [9] was more than 100 µM in each case.

As to `CN(C)c1ccc(/C=C2\C[C@H]3[C@@H]4CCc5cc(O)ccc5[C@H]4CC[C@]3(C)C2=O)cc1`, the TGI in [2], in [3], in [4], in [5], in experiment [6] and in experiment [7] was more than 100 µM throughout. The TGI in [9] and in experiment [10] was more than 100 µM each time.

Regarding `COc1cc(-c2[o+]c3cc(O)cc(OC4OC(CO)C(O)C(O)C4O)c3cc2OC2OC(CO)C(O)C(O)C2O)cc(OC)c1O` (stereo unspecified), the TGI in [1], in [2], in experiment [3], in experiment [4], in experiment [5] and in experiment [6] was more than 100 µM each time. Further, the TGI in [7], in experiment [8], in experiment [9] and in [10] was more than 100 µM in each case.

Consider `Cc1nnc2sc(-c3ccc([N+](=O)[O-])o3)nn12`, for which the TGI in [1] came to 8.58 µM; in experiment [2], 24.2 µM; in [3] it was 26.1 µM; in [4] it was 35.2 µM; in [5], 34.7 µM; in experiment [6], 21.9 µM. Besides, the TGI was found to be 17.5 µM in [7], 20.7 µM in experiment [8] and 24.4 µM in experiment [10].

With `COC(=O)C(C(=O)OC)C1CC(=O)c2c(Br)sc(Br)c21` (stereo unspecified), the TGI worked out at 49.9 µM in experiment [1]; 27.4 µM in experiment [2]; 53.5 µM in [3]; 35 µM in [4]; 26.4 µM in [5]; 40.8 µM in experiment [6]. The TGI in [7] is 40.9 µM; in [8] it was 30.9 µM; in experiment [9], 75 µM; in [10], 28.3 µM.

Regarding `O=S(=O)(O)c1ccc(Nc2ccnc3cc(Cl)ccc23)cc1`, the TGI in experiment [1], in experiment [2], in [3], in experiment [4], in [5] and in experiment [6] was more than 100 µM throughout. Moreover, the TGI in [7], in experiment [8], in experiment [9] and in experiment [10] was more than 100 µM throughout.

`Cc1nnc(CC#N)n1NC(=O)CC#N`: the TGI in experiment [1], in experiment [2], in experiment [3], in [4], in experiment [6] and in [7] was more than 100 µM each time. The TGI in [8], in [9] and in experiment [10] was more than 100 µM in each case.

As for `c1cc2ccc1CNCCN1CCNCc3ccc(cc3)Oc3ccc(cc3)CNCCN(CCNCc3ccc(cc3)O2)CCNCc2ccc(cc2)Oc2ccc(cc2)CNCC1`, the GI50 in [1] is 0.503 µM; in experiment [2], 1.6 µM; in [4] it was 0.0202 µM; in [6], 1.7 µM; in [7], 1.36 µM; in experiment [10] it was 2.26 µM. In addition, the TGI in experiment [1] came out at 2.02 µM; in experiment [2] it was 3.14 µM; in experiment [4] it was 0.0501 µM; in experiment [6], 3.38 µM; in [7] it was 2.7 µM; in experiment [10], 5.19 µM.

For the compound `CC(C)c1nccn1Cc1ccc(Cl)cc1Cl`, the TGI in experiment [2] is more than 100 µM; in experiment [3], more than 100 µM; in [4], more than 100 µM; in experiment [5], 57.8 µM; in [6], more than 100 µM; in experiment [7] it was more than 100 µM. Besides, the TGI in experiment [8] was determined as 63.4 µM; in experiment [9], 85 µM; in [10], 34.9 µM.

For `C/C(=C\c1ccccc1)C(=O)NCc1ccc(C(=O)NCCc2c[nH]c3ccccc23)cc1`, the TGI in experiment [2], in experiment [3], in [4], in experiment [5], in [6] and in experiment [7] was more than 100 µM in each case. Moreover, the TGI in [8], in [9] and in experiment [10] was more than 100 µM each time.

As for `O=C(O)CCCc1ccc2c(c1)CC1(C2)Cc2ccc(CCCC(=O)O)cc2C1`, the TGI in experiment [1], in experiment [2], in [3], in [4], in [5] and in [6] was more than 100 µM in each case. For the same compound, the TGI in experiment [7], in experiment [8] and in [10] was more than 100 µM in each case.

With `CC1(C)CC2(C)OC(=N)C1(C#N)C2(C#N)C#N` (stereo unspecified), the TGI came to 15.6 µM in [1]; 31.7 µM in experiment [2]; 33.5 µM in experiment [3]; 10.5 µM in experiment [4]; 23.7 µM in [5]; 23.8 µM in [6]. The TGI in experiment [7] was 33.3 µM; in experiment [8] it was 20.1 µM; in experiment [10] it was 21 µM.

Turning to `Oc1ccc2ccccc2c1OCc1nnc(CCCCCCCCc2nnc(COc3c(O)ccc4ccccc34)o2)o1`, the TGI in [2], in [3], in experiment [4], in [5], in [6] and in [7] was more than 100 µM throughout. For the same compound, the TGI is 54.5 µM in experiment [8], more than 100 µM in experiment [9] and more than 100 µM in experiment [10].

On to `Cn1c(=O)c2sc3cc4c(cc3c2c2ccccc21)sc1c(=O)n(C)c2ccccc2c14`, for which the TGI was more than 100 µM in experiment [1]; more than 100 µM in experiment [2]; 99.1 µM in [4]; more than 100 µM in experiment [5]; more than 100 µM in experiment [6]; more than 100 µM in experiment [7]. Moreover, the TGI in experiment [8] is more than 100 µM; in experiment [9] it was 93.6 µM; in [10], more than 100 µM.

In the case of `Cc1ccc2cnc(N)c(C#Cc3cncc(C(=O)Nc4ccc(CN5CCN(C)CC5)c(C(F)(F)F)c4)c3)c2c1`, the GI50 in experiment [1] is 0.212 µM; in [2], 0.66 µM; in [3], 0.005 µM; in experiment [4], 0.0771 µM; in experiment [5], 0.693 µM; in [7], 0.166 µM. In addition, the GI50 in experiment [9] was 0.716 µM; in experiment [10] it was 0.813 µM. For the same compound, the TGI stood at 0.908 µM in [1]; 1.63 µM in experiment [2]; 0.619 µM in experiment [3]; 0.446 µM in experiment [4]; 1.97 µM in [5]; 0.805 µM in experiment [7]. Moreover, the figures for the TGI in experiment [9] and in experiment [10] were 1.44 µM and 1.51 µM, respectively.

On to `COC(=O)/C=C\C(C#N)(C#N)N=Cc1ccsc1`, for which the TGI in experiment [2] came to 30.7 µM; in experiment [3] it was 1.62 µM; in experiment [4] it was 3.7 µM; in experiment [5], 3.28 µM; in experiment [6], 8.23 µM; in experiment [7], 12.5 µM. Moreover, the values for the TGI in [8], in experiment [9] and in [10] were 3.57 µM, 29.5 µM and 15.5 µM, respectively.

In the case of `Cc1cc(C)c2c(c1)CC1(Cc3c(C)cc(C)cc3C1=O)C2=O` (stereo unspecified), the TGI in experiment [1], in experiment [2], in experiment [3], in experiment [4], in experiment [5] and in experiment [6] was more than 100 µM throughout. The TGI in experiment [7], in experiment [9] and in experiment [10] was more than 100 µM each time.

Take `Cc1ccc(S(=O)(=O)N2CCN(CCO)CCN(S(=O)(=O)c3ccc(C)cc3)CCN(CCO)CC2)cc1`: the TGI stood at 37.3 µM in experiment [1]; 35.2 µM in experiment [2]; 35.3 µM in experiment [3]; 66 µM in experiment [4]; 31.5 µM in [6]; 29.2 µM in [7]. In addition, the TGI is 29.1 µM in experiment [8], 92.4 µM in [9] and 27.3 µM in [10].
